# Records with an inconclusive call do not appear. Active and inactive are the calls of the source. No rule for the calls is given here.
# Test system: Mycobacterium tuberculosis non-replicating, growth inhibition
# Assay: growth inhibition of non-replicating M. tuberculosis (AID 488890)
row,Compound,IC50
1,CCc1nnc(N/N=C/c2ccc(-c3ccc([N+](=O)[O-])cc3)o2)n1N,7.59 µM
2,COc1ccc(CCCC(=O)NCc2ccccc2)cc1C,5.26 µM
3,Cc1ccc(N2C(=O)CC(Sc3nccc(C)n3)C2=O)cc1 (centres undefined),29.6 µM (inactive)
4,Cc1ccccc1NC(=O)c1ccc([N+](=O)[O-])o1,7.05 µM
5,CC(C)(C)c1ccc(OCCC(=O)OCC(=O)NC2CC2)cc1,23.6 µM (inactive)
6,CC(C)(C)NC(=O)C(=O)NNC(=O)COc1ccc(Br)cc1,12 µM (inactive)
7,COc1cc(Cl)cc(/C=N/NC(N)=O)c1O,10.2 µM (inactive)
8,Oc1c(Cl)cc(CN2CCOCC2)c2cccnc12,2.53 µM
9,C=CCc1cc(Cl)ccc1OCCCn1ccnc1,8.18 µM
10,O=C(COC(=O)c1cc2ccccc2oc1=O)Nc1ccc(F)cc1F,10.3 µM (inactive)
11,CCOC(=O)CC(=O)Nc1ccc(C(=O)OCC)cc1,5.23 µM
12,CC1(c2nnc(Cc3ccccc3)o2)CC(c2ccccc2[N+](=O)[O-])=NO1 (centres undefined),10.5 µM (inactive)
13,Cc1ccc(C(=O)CCNc2ccc(F)c(Cl)c2)o1,11 µM (inactive)
14,CC(C)Oc1ccc(C(=O)CCN2CCCCC2)cc1,6.21 µM
15,N/C(=N\OC(=O)c1cccs1)c1ccccc1,24 µM (inactive)
16,O=C(Nc1nnc(-c2ccccc2Cl)o1)c1ccc(S(=O)(=O)N2CCCCCC2)cc1,8.7 µM
17,S=C1NC2(CCCC2)N=C1c1ccccc1,12.4 µM (inactive)
18,C/C(=N\Nc1ccc(Cl)cc1)c1ccccn1,15.9 µM (inactive)
19,OC(C#CCN1CCOCC1)c1cccs1 (centres undefined),7.53 µM
20,CC(C)(C)c1cc(C(=O)N/N=C/c2ccc([N+](=O)[O-])s2)n[nH]1,5.5 µM

row,Compound,IC50
1,O=[N+]([O-])c1ccc(CN2CCN(c3ccc(F)cc3)CC2)o1,0.45 µM
2,COC(=O)c1cn(NC(=O)c2cnccn2)c(=O)c2ccccc12,8.67 µM
3,COc1cc(CNC2CCCC2)cc(Cl)c1OCc1ccc(F)cc1,17.5 µM (inactive)
4,CCCCCCC1CC(C)(C(=O)CNc2nncs2)OC1=O (centres undefined),20.3 µM (inactive)
5,Cc1nn(C)cc1/C=N/NC(=O)c1sc2ccccc2c1Cl,27.8 µM (inactive)
6,CC(C)(C)c1csc(NC(=O)c2ccccc2O)n1,19.6 µM (inactive)
7,Oc1ccc(F)c2cccnc12,1.61 µM
8,CCCn1c(CNc2ccccc2O)nc2ccccc21,3.3 µM
9,Cc1ccc(C)c(NC(=O)c2cc([N+](=O)[O-])cc([N+](=O)[O-])c2)c1,28.3 µM (inactive)
10,CCCCn1c(O)c(/C=C2/C=CC=N2)c(=O)[nH]c1=O,1.17 µM
11,Cc1c(CN2CCC(CO)(CCOc3ccccc3)CC2)[nH]c2c(Cl)cccc12,8.93 µM
12,Fc1ccc(COc2ccc(-c3nnco3)cc2)cc1,10.8 µM (inactive)
13,COC(=O)c1ccc(COC(=O)c2ccccn2)cc1,7.11 µM
14,CCOc1cccc(/C=N/NC(=O)c2ccc3c(c2)OCCO3)c1O,1.12 µM
15,CN(C)c1ccc(/C=C2\N=C(C(C)(C)C)OC2=O)cc1,9.11 µM
16,Cc1ccc(-c2cc(C(F)(F)F)n3nc(C(=O)NCCCn4ccnc4)cc3n2)cc1C,14.1 µM (inactive)
17,O=C(CC1CC2CCC1C2)NCc1cccs1 (centres undefined),1.69 µM
18,CCOc1ccc(-c2cc(CCCC(=O)NCCC(C)C)no2)cc1,18.2 µM (inactive)
19,Cc1noc2ncnc(Sc3ccc(Br)cc3)c12,6.24 µM
20,CC(C)(C)c1ccccc1OCCOCCN1CCCCCC1,16.2 µM (inactive)

row,Compound,IC50
1,Cc1ccc2nc(-c3ccccn3)c(NC3CCCC3)n2c1,12.5 µM (inactive)
2,O=C(CN1CCOCC1)N/N=C/c1ccc(-c2ccc(Br)cc2)o1,4.3 µM
3,CCOC(=O)CNC(=O)CNC(=O)c1nn(-c2ccc(OC)c(Cl)c2)c(=O)c2ccccc12,29.1 µM (inactive)
4,O=c1cc(-c2ccccc2Cl)oc2ccc([N+](=O)[O-])c(O)c12,1.59 µM
5,CCCOC(=O)c1ccc(-c2ccc(C=O)o2)cc1,1.27 µM
6,CCCOC(=O)c1ccc(NC(=O)c2ccc(Br)o2)cc1,2.96 µM
7,COc1cc(C(=O)ON=C2C=C(C)C(=O)C(C)=C2)cc(OC)c1OC,48.6 µM (inactive)
8,CC(=O)Nc1sc2c(c1-c1nc3ccccc3s1)CCN(C(C)C)C2,6.35 µM
9,CCOC(=O)c1ccc(NC2OC(=O)c3ccccc32)cc1 (centres undefined),3.99 µM
10,COc1ccc(C(C)=O)cc1COC(=O)c1ccc2ccccc2n1,4.38 µM
11,Cc1nc2ccccc2n1/N=C/c1ccc([N+](=O)[O-])s1,0.32 µM
12,O=C(COc1ccc(F)cc1)N/N=C/c1cccc2cccnc12,3.84 µM
13,CCOC(=O)c1ccc(-n2c(CCC(=O)O)ccc2-c2cccs2)cc1,36.2 µM (inactive)
14,COc1cc(N=c2ssnc2Cl)cc(OC)c1,19.3 µM (inactive)
15,COc1ccc(/C=N/Nc2cc(C)nc3ccccc23)cc1,8.43 µM
16,COc1ccc(C(=O)COC(=O)COc2ccc(C)c(C)c2)cc1,20.7 µM (inactive)
17,O=C(N/N=C/C(Br)=C/c1ccccc1)c1cnccn1,13.1 µM (inactive)
18,O=C1NCC(O)=C1C=Nc1ccccc1O,6.37 µM
19,O=C(N/N=C/c1ccccn1)c1ccccc1,14.6 µM (inactive)

# — PubChem BioAssay AID488890 (Southern Research Specialized Biocontainment Screening …, 2010)
